# Source: US11317626B2, “Forchlorfenuron mixtures and uses thereof” (Valent BioSciences LLC, priority 2018, dated 2022)
# Legend:
# Format in all cases: in vivo
# Concord grape vines [1] = assay: Example 1: bud break and shoot growth of potted Concord grape vines in greenhouse; details: for Broken Buds/Plant / FW/Broken Bud: 51 days post-treatment; for FW/Plant: combined shoot fresh weight at 51 DAT; for 50% BB: days from application to 50% of the plants showing at least one bud broken; for 0-50% BB: days from bud break on the first plant to 50% of the plants with bud break, synchrony
# Source text: An aqueous 50% hydrogen cyanamide solution (Sigma-Aldrich, St. Louis, Mo. USA) was used as the source of hydrogen cyanamide (“HC”). The commercial product, Dormex® contains 50% hydrogen cyanamide (w/v) in an aqueous base.
# Erger® was used as the source of 15-0-0 fertilizer. Erger® contains 15% total nitrogen as 3.1% ammoniacal nitrogen, 5.8% nitrate nitrogen, 6.1% urea nitrogen and 3.3% calcium derived from a mixture of ammonium nitrate, calcium nitrate and urea. Erger® is always used in combination with either 20% (w/v) Ca(NO3)2 or Activ Erger®. In the following examples, 15-0-0 fertilizer was applied at a rate of 208,340 ppm calcium nitrate, 15,060 ppm nitrogen nitrate and 15,660 ppm urea or 239,060 ppm total.
# CAN-17 was used as the 17-0-0 fertilizer. CAN-17 contains 17% total nitrogen as 4.6% ammonium nitrogen and 11.6% nitrate nitrogen and 1.3% urea nitrogen and 8.8% calcium derived from ammonium nitrate and calcium nitrate. CAN-17 is available from J. R. Simplot Company (Boise, Id., USA). In the following examples, 17-0-0 fertilizer was applied at a rate of 118,200 ppm calcium nitrate and 78,900 ppm nitrogen nitrate or 197,100 ppm total. See, Table 1 below, for ratios of forchlorfenuron (“CPPU”) to fertilizer that were used in the following examples.
# To assess the ability of mixtures of the invention to promote and synchronize bud break these mixtures were applied to Concord grape vines and examined for bud break (initiation of growth) and subsequent shoot development. Specifically, dormant bare-rooted Concord grape vines were planted in pots containing Pro-Mix® BX potting soil (Pro-Mix is a registered trademark of and available from Premier Horticulture Ltd.) and pruned to five nodes on a single shoot of one-year-old wood. Nodes are regions on the shoot where leaves arise from the shoot and buds are present at the axis of the shoot:leaf interface. The bud found at the shoot:leaf interface develops into the vines new shoot growth. Aqueous solutions of forchlorfenuron, HC, 15-0-0 fertilizer, 17-0-0 fertilizer, and mixtures thereof were each applied individually or sequentially or co-applied to the first-year wood of separate Concord grape vines. Plants were grown in a heated greenhouse for 49 days and evaluated for percent of vines showing bud break, periodically between seven days after application and the conclusion of the experiment. Percent bud break is determined by the number of plants that have at least one bud broken divided by the total number of plants per treatment times 100. At 51 days after treatment (“DAT”), the plants were sacrificed and measured for total number of flower clusters, total new shoot length, longest new shoot, combined new shoot fresh weight. New shoot growth is the growth arising from the dormant buds not including the woody growth that was planted and gave rise to the new growth.
# (§1) To determine if the mixtures provided unexpected results, the observed combined efficacy (“OCE”) was divided by the expected combined efficacy (“ECE”) wherein the expected ECE is calculated by the Abbott method: ECE=A+B−(AB/100), • wherein ECE is the expected combined efficacy and in which A and B are the speed of bud break relative to control, the number of buds broken per plant relative to control, shoot length relative to control or shoot weight relative to control given by the single active ingredients. If the ratio between the OCE of the mixture and the ECE of the mixture is greater than 1, then greater than expected interactions are present in the mixture. (Gisi, Synergistic Interaction of Fungicides in Mixtures, The American Phytopathological Society, 86:11, 1273-1279,1996). Results
# Concord grape vines [2] = assay: Example 2: Concord grape vines greenhouse, forchlorfenuron and 17-0-0 fertilizer (CAN17) study; details: for Fresh Weight at Harvest: combined shoot fresh weight, 52 days after planting; for 50% BB: days after treatment to 50% bud break; for Average Number of Broken Nodes Per Plant at Harvest: harvest 52 days after planting
# Source text: To assess the ability of mixtures of the invention to promote and synchronize bud break these mixtures were applied to Concord grape vines and examined for bud break (initiation of growth) and subsequent shoot development. Specifically, dormant bare-rooted Concord grape vines were planted in pots containing Pro-Mix® BX potting soil (Pro-Mix is a registered trademark of and available from Premier Horticulture Ltd.) and pruned to five nodes on a single shoot of one-year-old wood. Nodes are regions on the shoot where leaves arise from the shoot and buds are present at the axis of the shoot:leaf interface. The bud found at the shoot:leaf interface develops into the vines new shoot growth. Aqueous solutions of forchlorfenuron, HC, 15-0-0 fertilizer, 17-0-0 fertilizer, and mixtures thereof were each applied individually or sequentially or co-applied to the first-year wood of separate Concord grape vines. […] Percent bud break is determined by the number of plants that have at least one bud broken divided by the total number of plants per treatment times 100. […] New shoot growth is the growth arising from the dormant buds not including the woody growth that was planted and gave rise to the new growth.
# as §1
# The experiment from Example 1 was repeated with varying quantities of forchlorfenuron and fertilizers in a greenhouse experiment.
# [3] = tested on: Flame seedless grape vines; assay: Example 3: bud break on spurs of field-grown Flame seedless grape vines; details: 41 days post application
# Experimental: as §1
# To assess the ability of mixtures of the invention to promote and synchronize bud break, these mixtures were applied to field-grown Flame seedless grape vines in Thermal, Calif., and examined for bud break (initiation of growth) and subsequent shoot development. Forchlorfenuron, Dormex (50% HC), 15-0-0 (Erger®) and 17-0-0 fertilizers (CAN17), and mixtures thereof were each applied individually or sequentially (co-applied) to the separate spurs of Flame seedless grape vines. Plants were evaluated for bud break at 41 days after treatment. Results of these evaluations can be seen below in Tables 11 and 12.
smiles,measurement,setting,value
"O=C(Nc1ccccc1)Nc1ccnc(Cl)c1 [CPPU, N-(2-Chloro-4-pyridyl)-N′-phenylurea]",Percentage of Concord Grape Vines with Dormancy Relieved,"Concord grape vines [1]; 31 days after treatment, plants with at least one bud showing a green shoot emerging, listed as CPPU 100 ppm",25%
same,Percentage of Concord Grape Vines with Dormancy Relieved,"Concord grape vines [1]; 31 days after treatment, plants with at least one bud showing a green shoot emerging, listed as CPPU 300 ppm",12.5%
same,Percentage of Concord Grape Vines with Dormancy Relieved,"Concord grape vines [1]; 31 days after treatment, plants with at least one bud showing a green shoot emerging, listed as CPPU 1000 ppm",37.5%
same,Percentage of Concord Grape Vines with Dormancy Relieved,"Concord grape vines [1]; 34 days after treatment, listed as CPPU 100 ppm",50%
same,Percentage of Concord Grape Vines with Dormancy Relieved,"Concord grape vines [1]; 34 days after treatment, listed as CPPU 300 ppm",37.5%
same,Percentage of Concord Grape Vines with Dormancy Relieved,"Concord grape vines [1]; 34 days after treatment, listed as CPPU 1000 ppm",62.5%
same,Percentage of Concord Grape Vines with Dormancy Relieved,"Concord grape vines [1]; 36 days after treatment, listed as CPPU 100 ppm",50%
same,Percentage of Concord Grape Vines with Dormancy Relieved,"Concord grape vines [1]; 36 days after treatment, listed as CPPU 300 ppm",50%
same,Percentage of Concord Grape Vines with Dormancy Relieved,"Concord grape vines [1]; 36 days after treatment, listed as CPPU 1000 ppm",62.5%
same,Percentage of Concord Grape Vines with Dormancy Relieved,"Concord grape vines [1]; 38 days after treatment, listed as CPPU 100 ppm",50%
same,Percentage of Concord Grape Vines with Dormancy Relieved,"Concord grape vines [1]; 38 days after treatment, listed as CPPU 300 ppm",50%
same,Percentage of Concord Grape Vines with Dormancy Relieved,"Concord grape vines [1]; 38 days after treatment, listed as CPPU 1000 ppm",75%
same,Percentage of Concord Grape Vines with Dormancy Relieved,"Concord grape vines [1]; 43 days after treatment, listed as CPPU 100 ppm",75%
same,Percentage of Concord Grape Vines with Dormancy Relieved,"Concord grape vines [1]; 43 days after treatment, listed as CPPU 300 ppm",62.5%
same,Percentage of Concord Grape Vines with Dormancy Relieved,"Concord grape vines [1]; 43 days after treatment, listed as CPPU 1000 ppm",87.5%
same,Percentage of Concord Grape Vines with Dormancy Relieved,"Concord grape vines [1]; 45 days after treatment, listed as CPPU 100 ppm",75%
same,Percentage of Concord Grape Vines with Dormancy Relieved,"Concord grape vines [1]; 45 days after treatment, listed as CPPU 300 ppm",62.5%
same,Percentage of Concord Grape Vines with Dormancy Relieved,"Concord grape vines [1]; 45 days after treatment, listed as CPPU 1000 ppm",87.5%
same,Percentage of Concord Grape Vines with Dormancy Relieved,"Concord grape vines [1]; 51 days after treatment, listed as CPPU 100 ppm",87.5%
same,Percentage of Concord Grape Vines with Dormancy Relieved,"Concord grape vines [1]; 51 days after treatment, listed as CPPU 300 ppm",62.5%
same,Percentage of Concord Grape Vines with Dormancy Relieved,"Concord grape vines [1]; 51 days after treatment, listed as CPPU 1000 ppm",87.5%
same,Broken Buds/Plant,Concord grape vines [1]; listed as CPPU 100 ppm,1.71
same,FW/Broken Bud,Concord grape vines [1]; listed as CPPU 100 ppm,4.73 grams
same,Broken Buds/Plant,Concord grape vines [1]; listed as CPPU 300 ppm,2.00
same,FW/Broken Bud,Concord grape vines [1]; listed as CPPU 300 ppm,4.69 grams
same,Broken Buds/Plant,Concord grape vines [1]; listed as CPPU 1000 ppm,1.29
same,FW/Broken Bud,Concord grape vines [1]; listed as CPPU 1000 ppm,9.51 grams
same,FW/Plant,Concord grape vines [1]; listed as CPPU 100 ppm,8.11 grams
same,FW/Plant,Concord grape vines [1]; listed as CPPU 300 ppm,9.39 grams
same,FW/Plant,Concord grape vines [1]; listed as CPPU 1000 ppm,12.22 grams
same,50% BB,Concord grape vines [1]; listed as CPPU 100 ppm,34 days
same,50% BB,Concord grape vines [1]; listed as CPPU 300 ppm,36 days
same,50% BB,Concord grape vines [1]; listed as CPPU 1000 ppm,34 days
same,0-50% BB,Concord grape vines [1]; listed as CPPU 100 ppm,10 days
same,0-50% BB,Concord grape vines [1]; listed as CPPU 300 ppm,7 days
same,0-50% BB,Concord grape vines [1]; listed as CPPU 1000 ppm,14 days
same,Fresh Weight at Harvest,Concord grape vines [2]; listed as CPPU 300 ppm,14.30 grams
same,Fresh Weight at Harvest,Concord grape vines [2]; listed as CPPU 600 ppm,15.10 grams
same,Fresh Weight at Harvest,Concord grape vines [2]; listed as CPPU 1000 ppm,11.33 grams
same,50% BB,Concord grape vines [2]; listed as CPPU 300 ppm,31 days
same,50% BB,Concord grape vines [2]; listed as CPPU 600 ppm,35 days
same,50% BB,Concord grape vines [2]; listed as CPPU 1000 ppm,38 days
same,Average Number of Broken Nodes Per Plant at Harvest,Concord grape vines [2]; listed as CPPU 300 ppm,1.86
same,Average Number of Broken Nodes Per Plant at Harvest,Concord grape vines [2]; listed as CPPU 600 ppm,2.00
same,Average Number of Broken Nodes Per Plant at Harvest,Concord grape vines [2]; listed as CPPU 1000 ppm,1.80
same,Broken Buds per Spur (OCE),[3]; listed as CPPU 300 ppm,0.00
same,Percentage of Spurs With At Least One Bud Broken (OCE),[3]; listed as CPPU 300 ppm,0%
same,Broken Buds per Spur (OCE),[3]; listed as CPPU 600 ppm,0.03
same,Percentage of Spurs With At Least One Bud Broken (OCE),[3]; listed as CPPU 600 ppm,3%
same,Broken Buds per Spur (OCE),[3]; listed as CPPU 1000 ppm,0.00
same,Percentage of Spurs With At Least One Bud Broken (OCE),[3]; listed as CPPU 1000 ppm,0%
